Experimental data as given in patent US7399460B2, “Metal complexes derivatized with folate for use in diagnostic and therapeutic applications” (Bracco International B.V., priority 1998, dated 2008).

Legend:
cell surface FBP = cell surface FBP (Homo sapiens, UniProt P15328); details: in the presence of an equimolar amount of conjugate; cited from earlier work
MA104 cells = details: cited from earlier work
JAR cells [1] = molecular target: T1, JAR cells (Homo sapiens, UniProt P15328); experiment: Binding of ^153Gd-folates or ^3H folate to JAR cells at 37° C.
T1 construct: host or cells: JAR cells
Description: (§1) Cell culture: KB cells (a human nasopharyngeal epidermal carcinoma cell line) and JAR cells (a human choriocarcinoma cell line) were obtained from ATCC (American Type Culture Collection). Both cell lines are reported to overexpress transcripts encoding folate binding protein. […] The media for each cell line was supplemented with 10% defined fetal calf serum (HyClone, Inc.) Monolayers were cultured at 37° C. in a humidified atmosphere containing 5% CO2.
(§2) Forty-eight hours prior to each experiment, 5×10^5 cells were seeded into 35 mm culture dishes and allowed to grow for 2 days in folate-depleted media. The cells were then washed with Tris-buffered saline (TBS=150 mM NaCl, 50 mM Tris, pH 7.5) and 1 mL of fresh media containing 10 pmol ^153Gd-DO3A-APA-folate (α or γ isomer) and 0-900 pmol of cold native folate per sample was added. Control experiments were performed using 10 pmol of ^3H folate (Amersham International) and 0-900 pmol of cold native folate. The cells were incubated for 30 min at 37° C. They were then washed three times with ice cold TBS and suspended in one ml of water. Cell associated radioactivity was determined by gamma (^153Gd-folate) or scintillation counting (^3H-folate) of a 500 μl aliquot of this suspension; 100 μl was used in the BCA protein assay (Pierce catalog # 23225), which was used to determine and normalize for cellular protein content.

[2] = molecular target: T2, folate binding protein on the KB cells (Homo sapiens, UniProt P15328); experiment: Binding of ^3H-folate and alpha or gamma isomer of ^153Gd-DO3A-APA-folate to KB cells at 4° C. with and without excess folate; details: 30 min
T2 construct: host or cells: KB cells
Description: In a second experiment, the ability of the alpha and gamma isomers of ^153Gd-DO3A-APA-folate to bind to KB cells at 4° C. was studied. KB cells (˜5×10^5 cells/well) were seeded into 35-mm wells and incubated for 48 hours as described above. The cells were then cooled to 4° C. for 30 min and incubated with the following mixtures for 30 min at 4° C.: • 1. 10 pmol of ^3H-folate • 2. 10 pmol of ^3H-folate and 250 pmol of native folate • 3. 10 pmol of ^153Gd/Gd(DO3A-APA-α-folate) • 4. 10 pmol of ^153Gd/Gd(DO3A-APA-α-folate) and 250 pmol of native folate • 5. 10 pmol of ^153Gd/Gd(DO3A-APA-γ-folate) • 6. 10 pmol of ^153Gd/Gd(DO3A-APA-γ-folate) and 250 pmol of native folate
(§3) Following the incubation period, the cells were washed 3 times with ice-old Tris-buffered saline. The cells were then stripped from the plates using 1.0 mL of water. Aliquots of the water/cell mixture were assayed for the respective radioisotopes and for cellular protein (to determine the number of KB cells present in each well). The radioassay data were used to calculate the % of radiolabeled compound bound to the cells in the absence and presence of unlabeled native folate. Data in FIG. 2 are presented as the percentage bound, relative to the % bound in the control wells containing 10 pmol of ^3H-folate.

[3] = molecular target: T3, folate binding protein on KB cells (Homo sapiens, UniProt P15328); experiment: Binding of ^153Gd-DO3A-APA-folate (α or γ isomer) or ^3H folate to KB cells at 37° C. in competition with cold native folate; details: 10 pmol labelled compound, 0-900 pmol cold native folate, 30 min, FIG. 1
T3 construct: host or cells: KB cells
Description: as §1, §2

JAR tumors = experiment: Biodistribution at MRI dose level in nude mice with subcutaneous JAR tumors; details: 60 min, 79.2 μmol/kg dose
Description: Biodistribution studies were performed using female nu/nu mice implanted with subcutaneous JAR tumors using the general procedures described in the example above. Animals were sacrificed 60 min post IV injection of an “MRI” dose level (0.1 mmol/kg) of ^153Gd/Gd-DO3A-APA-(α)-folate, ^153Gd/Gd-DO3A-APA-(γ)-folate or Bis(^153Gd/Gd-DO3A-APA)folate and selected organs were removed, weighed, and assayed for radioactivity, in order to determine the % injected dose/g-tissue (% ID/g) in the tumors.

JAR cells [4] = molecular target: T1, JAR cells; experiment: In vitro exchange study with cold native folate in the medium, JAR cells; format: cell-based
Description: (§4) Exchange studies were performed to examine the effect of native folate on the radioactivity levels in KB or JAR cells that had been pre-loaded with a saturating level of radiolabeled Gd-folates or native folate in vitro. ^3H-folate, ^153Gd-DO3A-APA-(γ)-folate or ^153Gd-DO3A-APA-(α)-folate (250 pmol) was incubated with KB or JAR cells as described in Example 18. At the end of the 30-min incubation period, these ^153Gd-folate or ^3H-folate-loaded cells were washed five times with ice-cold media containing 250 nM cold, native folate and were then incubated at 37° C. for 24 hours with media that contained 250 pmol of cold folate. At predetermined intervals during this time, the incubation medium was removed and replaced with fresh medium at 37° C. The radioactivity present in each aliquot of the incubation medium was used to determine the rate at which radioactivity from the ^3H-folate, ^153Gd-DO3A-APA-(γ)-folate or ^153Gd-DO3A-APA-(α)-folate washed out of the cells. At the end of the study, the cells were suspended in one ml of water and assayed for radioactivity and protein content.

KB cells = experiment: In vitro exchange study with cold native folate in the medium, KB cells; format: cell-based, human; details: 24 hours, 37° C., medium with cold native folate (250 nM), FIG. 4A
Description: as §4

[5] = molecular target: T2, folate binding protein on the KB cells; experiment: Binding of alpha and gamma isomers of ^99mTc-oxa-folate to KB cells at 4° C.; details: 30 min; for competition with native folate for folate binding protein on KB cells: plus 250-260 pmol cold native folate, 4° C. (FIG. 4, white bars); for binding to KB cells relative to that observed with 10 pmol of ^3H-folate: trace amounts (~0.5 μCi), 4° C., no cold folate (FIG. 4, dark bars)
Description: The ability of the alpha and gamma isomers of ^99mTc-oxa-folate to bind to KB cells was studied at 4° C. KB cells (˜5×10^5 cells/well) were seeded into 35-mm wells and incubated for 48 hours as described in example 17 above. The alpha and gamma isomers of ^99mTc-oxa-folate, were prepared and purified as described in examples 14 and 16. The cells were then cooled to 4° C. for 30 min and incubated with the following mixtures for 30 min at 4° C.: • 1. 10 pmol of ^3H-folate • 2. 10 pmol of ^3H-folate and 250 pmol of native folate • 3. […] Trace amounts (˜0.5 μCi) of ^99mTc-Oxa-γ-folate • 6. Trace amounts (˜0.5 μCi) of ^99mTc-Oxa-γ-folate and 260 pmol of native folate
as §3, with “ice-cold” for “ice-old”, “4” for “2”

T2 sequence (P15328 25-234): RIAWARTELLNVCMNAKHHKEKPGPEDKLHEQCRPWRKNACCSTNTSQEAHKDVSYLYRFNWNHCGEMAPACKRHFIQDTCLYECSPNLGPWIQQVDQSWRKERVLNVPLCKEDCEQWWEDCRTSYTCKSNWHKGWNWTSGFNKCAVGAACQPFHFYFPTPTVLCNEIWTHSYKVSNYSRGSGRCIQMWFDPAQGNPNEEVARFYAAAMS
T1 sequence (P15328 25-234): as above
Sequence of cell surface FBP (P15328 25-234): as above
T3 sequence (P15328 25-234): as above

CC(=O)N(O)CCCCCNC(=O)CCC(=O)N(O)CCCCCNC(=O)CCC(=O)N(O)CCCCCNC(=O)C(CCC(=O)O)NC(=O)c1ccc(NCc2cnc3nc(N)[nH]c(=O)c3n2)cc1 (single isomer, unassigned) [DF-folate (α) isomer]
decrease in bound ^3H folic acid (cell surface FBP): no ability to compete

Nc1nc2ncc(CNc3ccc(C(=O)N[C@@H](CCC(=O)O)C(=O)O)cc3)nc2c(=O)[nH]1 [folic acid]
binding by MA104 cells (MA104 cells): 1-2 pmol folic acid/10^6 cells

^153Gd-DO3A-APA-(γ)-folate
ability to compete with cold native folate for binding to the JAR cells (JAR cells [1]; 10 pmol, 0-900 pmol cold folate, 30 min, 37° C.): equally effective
binding to JAR cells compared with the radiolabeled control (^3H-folate) (JAR cells [1]; comparable test conditions, FIG. 1A): about half as effective
competition with native folate for folate binding protein on KB cells ([2]; 10 pmol plus 250 pmol cold native folate, 4° C. (FIG. 2, white bars)): do compete for folate binding protein on the KB cells
binding to KB cells compared with 10 pmol of ^3H-folate ([2]; 10 pmol, 4° C., no cold folate (FIG. 2, dark bars)): to the same extent
amount bound to the KB cells [3]: No significant differences

Bis(^153Gd-DO3A-APA)-folate
Tumor % ID/g (JAR tumors): 1.48 (0.12) % ID/g
[Gd] in tumor tissue (JAR tumors; calculated from % ID/g): 55 (4) μM

Gd-DO3A-APA-(γ)-folate
radioactivity from loaded JAR cells found in the medium (JAR cells [4]; after 6 hours, 37° C., medium with cold native folate, FIG. 4B): 30%
amount of compound washed from the JAR cells (JAR cells [4]; at 24 hours): similar
radioactivity lost from loaded KB cells to the incubation medium (KB cells): 20%

99m-Technetium complex of 12-(N-Pteroyl-α-L-glutamyl)-3,3,9,9-tetramethyl-5-oxa-4,8-diaza-2,10-dodecanedione dioxime [^99mTc-Oxa-α-folate]
competition with native folate for folate binding protein on KB cells [5]: do compete for folate binding protein on the KB cells
binding to KB cells relative to that observed with 10 pmol of ^3H-folate [5]: 140%

CC(C)(C)OC(=O)NCCCC(CCCNC(=O)OC(C)(C)C)(CCCNC(=O)OC(C)(C)C)NC(=O)CCC(=O)NC(CCC(=O)OCc1ccccc1)(CCC(=O)OCc1ccccc1)CCC(=O)OCc1ccccc1 [Example 11, N-[1,5-Bis(benzyloxycarbonyl)-3-[2-(benzyloxycarbony)ethyl)]-3-pentyl]-N′-[1,7-bis-(t-butoxycarbony)amino-[4-(3-(t-butyloxycarbonyl)propyl]-4-heptyl]butanedioic diamide]
melting point: 95 to 96 °C

CC(=O)N(O)CCCCCNC(=O)CCC(=O)N(O)CCCCCNC(=O)CCC(=O)N(O)CCCCCNC(=O)CCC(NC(=O)c1ccc(NCc2cnc3nc(N)[nH]c(=O)c3n2)cc1)C(=O)O (stereo not drawn) [DF-folate (γ) conjugate]
decrease in bound ^3H folic acid (cell surface FBP): 50%

99m-Technetium complex of 12-(N-Pteroyl-γ-L-glutamyl)-3,3,9,9-tetramethyl-5-oxa-4,8-diaza-2,10-dodecanedione dioxime [^99mTc-Oxa-γ-folate]
competition with native folate for folate binding protein on KB cells [5]: do compete for folate binding protein on the KB cells
binding to KB cells relative to that observed with 10 pmol of ^3H-folate [5]: to the same extent
